The values below come from US7674795B2, “Fluorene derivatives, composition containing said derivatives and the use thereof” (Aventis Pharma SA, priority 2005, dated 2010).

Data set [1] deals with Hsp82 (Saccharomyces cerevisiae, UniProt P02829). Nature of the data set: PK/LDH enzyme coupling test of the ATPase activity of Hsp82 (NADH decrease at 340 nm). The class given is biochemical. As to conditions: 1 μM Hsp82, 250 μM ATP, 37° C., pyruvate kinase/lactate dehydrogenase coupling, read-out: Hsp82 ATPase IC50. In a few lines:
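Yeast Hsp82 ATPase was coupled to PK/LDH, with ADP formation followed continuously as NADH loss at 340 nm at 37 °C. The mixture was preincubated 30 min at 37 °C, and the reaction was started with compound at variable concentrations plus Hsp82 at 1 μM. Initial rates (μM ADP/min) came from the tangent slope at origin, expressed as % inhibition.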

Chain of Hsp82 (P02829 whole entry): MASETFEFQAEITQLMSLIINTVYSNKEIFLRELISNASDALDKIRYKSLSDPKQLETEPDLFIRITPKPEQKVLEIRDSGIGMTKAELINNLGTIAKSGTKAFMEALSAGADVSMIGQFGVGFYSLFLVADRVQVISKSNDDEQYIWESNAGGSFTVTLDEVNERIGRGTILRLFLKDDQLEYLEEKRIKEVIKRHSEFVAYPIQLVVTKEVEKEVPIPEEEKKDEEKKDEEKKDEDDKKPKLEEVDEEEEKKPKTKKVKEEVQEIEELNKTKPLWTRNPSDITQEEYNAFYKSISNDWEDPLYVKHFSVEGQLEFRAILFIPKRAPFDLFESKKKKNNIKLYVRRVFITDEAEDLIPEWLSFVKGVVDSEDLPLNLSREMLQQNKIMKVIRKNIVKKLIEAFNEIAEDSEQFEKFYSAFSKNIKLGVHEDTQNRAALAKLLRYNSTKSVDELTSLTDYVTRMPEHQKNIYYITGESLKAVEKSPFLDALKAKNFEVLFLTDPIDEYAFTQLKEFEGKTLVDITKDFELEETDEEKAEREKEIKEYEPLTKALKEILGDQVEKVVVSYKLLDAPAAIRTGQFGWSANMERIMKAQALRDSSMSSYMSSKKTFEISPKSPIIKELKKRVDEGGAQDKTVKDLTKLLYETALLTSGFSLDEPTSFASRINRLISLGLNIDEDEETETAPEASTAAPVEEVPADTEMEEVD

On to `O=C(NC1c2ccccc2-c2c(-c3nc4cnccc4[nH]3)cccc21)c1cccc2ncccc12` (racemic) [Example 14, [4-(3H-imidazo[4,5-c]pyridin-2-yl)-9H-fluoren-9(R,S)-yl]amide of quinoline-5-carboxylic acid], for which the melting point (usually the temperature of the solid-liquid transition) was 254 to 258 °C (dec.). In data set [1], the IC50 – broadly, the concentration that gives 50% inhibition – is under 1 µM.
As for `NC1c2ccccc2-c2c(-c3nc4ccc(F)cc4[nH]3)cccc21` (racemic) [Example 71, 4-(6-fluoro-1H-benzimidazol-2-yl)-9H-fluoren-9(R,S)-ylamine], the melting point lay in the range of 170 to 172 °C. Also, in data set [1], the IC50 was 10 to 100 µM.
For the compound `O=C(NC1c2ccccc2-c2c(-c3nc4ccncc4[nH]3)cccc21)c1c[nH]c2ncccc12` (racemic) [Example 99, [4-(3H-imidazo[4,5-c]pyridin-2-yl)-9H-fluoren(R,S)-9-yl]amide of 1H-pyrrolo[2,3-b]pyridine-3-carboxylic acid], the melting point is 225 °C (dec.). Also, in data set [1], the IC50 is under 1 µM.
Turning to `Cn1cc(C(=O)NC2c3ccccc3-c3c(-c4nc5ccncc5[nH]4)cccc32)c2cccnc21` (racemic) [Example 101, [4-(3H-imidazo[4,5-c]pyridin-2-yl)-9H-fluoren-9(R,S)-yl]amide of 1-methyl-1H-pyrrolo[2,3-b]pyridine-3-carboxylic acid], the melting point is 204 °C (dec.). In data set [1], the IC50 was in the range of 1 to 10 µM.
Taken in the same sequence, the figures for `O=C(NC1c2ccccc2-c2c(-c3nc4ccncc4[nH]3)cccc21)c1cccc2[nH]ncc12` (racemic) [Example 111, [4-(3H-imidazo[4,5-c]pyridin-2-yl)-9H-fluoren-9(R,S)-yl]amide of 1H-indazole-4-carboxylic acid] were 230 to 235 °C and under 1 µM.
With `Cc1cc(C(=O)NC2c3ccccc3-c3c(-c4nc5ccncc5[nH]4)cccc32)cc(Cl)n1` (racemic) [Example 123, 2-chloro-N-[4-(3H-imidazo[4,5-c]pyridin-2-yl)-9H-fluoren-9(R,S)-yl]-6-methyl-isonicotinamide], the melting point came to 250 °C. The IC50 in data set [1] lay in the range of 1 to 10 µM.
`COc1ccc(C(=O)NC2c3ccccc3-c3c(-c4nc5ccncc5[nH]4)cccc32)cc1` (racemic) [Example 127, N-[4-(3H-imidazo[4,5-c]pyridin-2-yl)-9H-fluoren-9(R,S)-yl]-4-methoxybenzamide] showed a melting point of 194 °C.
`O=C1c2ccccc2-c2c1cccc2-c1nc2cnccc2[nH]1` [Example 1, 4-(3H-imidazo[4,5-c]pyridin-2-yl)-fluoren-9-one] showed a melting point of 236 to 238 °C. Moreover, in data set [1], the IC50 was in the range of 1 to 10 µM.
